Target: T1, human αVβ6 (Homo sapiens, UniProt P06756+P18564)
T1 construct: purchased R & D systems 3817-AV
Test: human αVβ6 HTRF binding assay
Details: recombinant human αVβ6 integrin, FITC-conjugated fibronectin
Procedure: All binding assays used the HTRF (homogeneous time resolved fluorescence) technology from Cisbio International, therefore all assays are described as HTRF binding assays. The assay results for the Examples are listed above together with the characterization data. The HTRF binding assays are established for the following integrins: human αVβ6, human αVβ1, human αVβ3, human αVβ5, and human αVβ8. All assays used the following assay buffer: 20 mM Tris, pH 7.4, 1 mM MgCl2, 1 mM MnCl2, 0.01% Tween 20, and 0.01% BSA. Alternatively, a SPA-based assay was used for evaluation of receptor binding.
The following describes the components and a representative procedure for the human αVβ6 HTRF binding assay: Recombinant human αVβ6 Integrin (R & D systems, 3817-AV) was biotinylated. Biotinylated human αVβ6 Integrin was added to assay vessel at a final concentration of 1.25 nM. FITC-conjugated fibronectin (Cytoskeleton, FNR02) was then added at the final concentration of 5 nM. The mixture was centrifuged at 600 rpm for three minutes using Thermo Fisher Heraeus Multifuge X3 centrifuge and then incubated at RT for an hour. Streptavidin Terbium (Cisbio international 610STLB) was then added at the final concentration of 0.625 nM. The resulting mixture was centrifuged at 600 rpm for three minutes using Thermo Fisher Heraeus Multifuge X3 centrifuge and then incubated at room temperature overnight in dark before reading HTRF signals.

T1 sequence (P06756 31-992 limits assumed): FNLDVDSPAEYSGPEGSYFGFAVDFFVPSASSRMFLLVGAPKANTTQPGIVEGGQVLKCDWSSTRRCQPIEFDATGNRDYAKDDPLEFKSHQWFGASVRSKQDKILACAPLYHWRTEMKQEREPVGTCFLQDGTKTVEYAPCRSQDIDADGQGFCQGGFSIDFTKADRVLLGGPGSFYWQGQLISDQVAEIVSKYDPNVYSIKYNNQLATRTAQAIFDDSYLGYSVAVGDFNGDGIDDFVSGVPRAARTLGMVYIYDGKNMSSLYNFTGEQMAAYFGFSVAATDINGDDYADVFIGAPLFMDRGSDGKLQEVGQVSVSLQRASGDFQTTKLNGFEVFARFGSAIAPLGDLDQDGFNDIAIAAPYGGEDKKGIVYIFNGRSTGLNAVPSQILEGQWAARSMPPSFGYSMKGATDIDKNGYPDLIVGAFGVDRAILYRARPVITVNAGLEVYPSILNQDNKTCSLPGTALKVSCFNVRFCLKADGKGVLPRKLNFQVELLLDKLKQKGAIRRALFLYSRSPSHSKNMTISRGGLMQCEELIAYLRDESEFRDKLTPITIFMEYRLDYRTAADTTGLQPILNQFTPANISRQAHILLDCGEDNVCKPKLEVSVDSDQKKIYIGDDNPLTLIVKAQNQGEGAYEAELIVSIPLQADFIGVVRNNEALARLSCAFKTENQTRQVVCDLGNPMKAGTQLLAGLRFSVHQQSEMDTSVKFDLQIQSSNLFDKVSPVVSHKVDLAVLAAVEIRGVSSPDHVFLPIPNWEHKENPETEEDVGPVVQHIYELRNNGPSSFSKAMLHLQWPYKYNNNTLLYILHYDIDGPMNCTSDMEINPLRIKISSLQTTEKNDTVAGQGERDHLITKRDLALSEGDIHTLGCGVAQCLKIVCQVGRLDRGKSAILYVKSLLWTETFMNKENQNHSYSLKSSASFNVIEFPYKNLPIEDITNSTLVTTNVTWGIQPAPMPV
T1 sequence (P18564 22-707 limits assumed): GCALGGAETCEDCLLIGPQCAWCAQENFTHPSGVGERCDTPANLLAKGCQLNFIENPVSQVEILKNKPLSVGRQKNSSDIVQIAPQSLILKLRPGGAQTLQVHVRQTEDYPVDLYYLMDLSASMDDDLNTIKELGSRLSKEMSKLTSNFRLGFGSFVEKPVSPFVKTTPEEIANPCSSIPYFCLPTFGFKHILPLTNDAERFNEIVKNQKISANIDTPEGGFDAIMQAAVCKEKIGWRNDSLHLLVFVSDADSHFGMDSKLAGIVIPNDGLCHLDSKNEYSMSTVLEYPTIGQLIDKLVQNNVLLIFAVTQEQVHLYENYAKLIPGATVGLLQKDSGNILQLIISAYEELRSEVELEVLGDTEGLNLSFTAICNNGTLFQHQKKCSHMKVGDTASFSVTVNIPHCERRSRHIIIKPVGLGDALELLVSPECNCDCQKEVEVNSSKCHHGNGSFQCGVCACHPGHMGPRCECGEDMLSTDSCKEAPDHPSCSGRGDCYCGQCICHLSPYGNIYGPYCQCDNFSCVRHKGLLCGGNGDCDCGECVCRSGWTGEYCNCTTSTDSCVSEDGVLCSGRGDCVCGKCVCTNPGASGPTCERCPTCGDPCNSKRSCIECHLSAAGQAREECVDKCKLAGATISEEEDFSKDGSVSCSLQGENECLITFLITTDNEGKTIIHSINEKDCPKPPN

Row | SMILES | IC50 [nM]
1 | Cc1ncc([C@@H](CC(=O)O)n2ccc(CCCc3ccc4c(n3)NCCC4)n2)cn1 [Example 55, (R)-3-(2-Methylpyrimidin-5-yl)-3-(3-(3-(5,6,7,8-tetrahydro-1,8-naphthyridin-2-yl)propyl)-1H-pyrazol-1-yl)propanoic acid] | 900
2 | COc1ncc(C(CC(=O)O)c2nc(CCCc3ccc4c(n3)NCCC4)cs2)cn1 (single isomer, unassigned) [Example 146, 3-(2-methoxypyrimidin-5-yl)-3-(4-(3-(5,6,7,8-tetrahydro-1,8-naphthyridin-2-yl)propyl)thiazol-2-yl)propanoic acid] | 140
3 | CCOc1ncc(C(CC(=O)O)c2nc(CCCCc3ccc4c(n3)NCCC4)cs2)cn1 (single isomer, unassigned) [Example 129, 3-(2-ethoxypyrimidin-5-yl)-3-(4-(4-(5,6,7,8-tetrahydro-1,8-naphthyridin-2-yl)butyl)thiazol-2-yl)propanoic acid] | 28
4 | O=C(O)CC(c1cnc2ccccc2n1)n1ccc(CCCc2ccc3c(n2)NCCC3)n1 (racemic) [Example 28, (±)-3-(Quinoxalin-2-yl)-3-(3-(3-(5,6,7,8-tetrahydro-1,8-naphthyridin-2-yl)propyl)-1H-pyrazol-1-yl)propanoic acid] | 5500
5 | Cc1ncc(C(CC(=O)O)n2nccc2CCC[C@H]2CCc3cccnc3N2)cn1 (stereo partly drawn) [Example 87, 3-(2-methylpyrimidin-5-yl)-3-(5-(3-((S)-1,2,3,4-tetrahydro-1,8-naphthyridin-2-yl)propyl)-1H-pyrazol-1-yl)propanoic acid] | 1380
6 | COc1ccc(C(CC(=O)O)c2ncc(CCCCc3ccc4c(n3)NCCC4)s2)cn1 (single isomer, unassigned) [Example 17, 3-(6-Methoxypyridin-3-yl)-3-(5-(4-(5,6,7,8-tetrahydro-1,8-naphthyridin-2-yl)butyl)thiazol-2-yl)propanoic acid] | 16
7 | O=C(O)CC(c1cnc2nccnc2c1)n1ccc(CCCc2ccc3c(n2)NCCC3)n1 (racemic) [Example 33, (±)-3-(Pyrido[2,3-b]pyrazin-7-yl)-3-(3-(3-(5,6,7,8-tetrahydro-1,8-naphthyridin-2-yl)propyl)-1H-pyrazol-1-yl)propanoic acid] | 2800
8 | O=C(O)CC(c1cncnc1)n1ccc(CCCc2ccc3c(n2)NCCC3)n1 (stereo not shown) [Example 84, 3-(pyrimidin-5-yl)-3-(3-(3-(5,6,7,8-tetrahydro-1,8-naphthyridin-2-yl)propyl)-1H-pyrazol-1-yl)propanoic acid] | 110
9 | O=C(O)C[C@@H](c1ccc(=O)n(CC2CC2)c1)n1ccc(CCCc2ccc3c(n2)NCCC3)n1 [Example 111, (S)-3-(1-(cyclopropylmethyl)-6-oxo-1,6-dihydropyridin-3-yl)-3-(3-(3-(5,6,7,8-tetrahydro-1,8-naphthyridin-2-yl)propyl)-1H-pyrazol-1-yl)propanoic acid] | 19
10 | COc1ccc(C(CC(=O)O)c2csc(CCCc3ccc4c(n3)NCCC4)n2)cc1F (single isomer, unassigned) [Example 152, 3-(3-fluoro-4-methoxyphenyl)-3-(2-(3-(5,6,7,8-tetrahydro-1,8-naphthyridin-2-yl)propyl)thiazol-4-yl)propanoic acid] | 180
11 | COc1ccc([C@H](CC(=O)O)c2cnn(CCCc3ccc4c(n3)NCCC4)c2)cn1 [Example 8, (A)-3-(6-Methoxypyridin-3-yl)-3-(1-(3-(5,6,7,8-tetrahydro-1,8-naphthyridin-2-yl)propyl)-1H-pyrazol-4-yl)propanoic acid] | 64
12 | O=C(O)CC(c1ccc2nccnc2c1)c1nc(CCCCc2ccc3c(n2)NCCC3)cs1 (single isomer, unassigned) [Example 120, 3-(quinoxalin-6-yl)-3-(4-(4-(5,6,7,8-tetrahydro-1,8-naphthyridin-2-yl)butyl)thiazol-2-yl)propanoic acid] | 14
13 | COc1ccc(C(CC(=O)O)c2ncc(CCCCc3ccc4c(n3)NCCC4)n2C)cc1F (single isomer, unassigned) [Example 166, 3-(3-fluoro-4-methoxyphenyl)-3-(1-methyl-5-(4-(5,6,7,8-tetrahydro-1,8-naphthyridin-2-yl)butyl)-1H-imidazol-2-yl)propanoic acid] | 280
14 | COc1ncc(C(CC(=O)O)n2ccc(CCCc3ccc4c(n3)NCCCC4)n2)cn1 (single isomer, unassigned) [Example 105] | 470
15 | O=C(O)CC(c1cnc2ccccc2c1)n1ncc(CCCc2ccc3c(n2)NCCC3)n1 (single isomer, unassigned) [Example 174, 3-(quinolin-3-yl)-3-(4-(3-(5,6,7,8-tetrahydro-1,8-naphthyridin-2-yl)propyl)-2H-1,2,3-triazol-2-yl)propanoic acid] | 170
16 | COc1ccc(C(CC(=O)O)c2cnn(CCCCc3ccc4c(n3)NCCC4)c2)cc1F (stereo not shown) [Example 44, 3-(3-fluoro-4-methoxyphenyl)-3-(1-(4-(5,6,7,8-tetrahydro-1,8-naphthyridin-2-yl)butyl)-1H-pyrazol-4-yl)propanoic acid] | 64
17 | COc1ccc(C(CC(=O)O)c2ncc(CCCc3ccc4c(n3)NCCC4)s2)cn1 (single isomer, unassigned) [Example 19, 3-(6-Methoxypyridin-3-yl)-3-(5-(3-(5,6,7,8-tetrahydro-1,8-naphthyridin-2-yl)propyl)thiazol-2-yl)propanoic acid] | 44
18 | CN(C)C(=O)c1ccc(C(CC(=O)O)c2nc(CCCc3ccc4c(n3)NCCC4)cs2)cc1 (single isomer, unassigned) [Example 137, 3-(4-(dimethylcarbamoyl)phenyl)-3-(4-(3-(5,6,7,8-tetrahydro-1,8-naphthyridin-2-yl)propyl)thiazol-2-yl)propanoic acid] | 210
19 | COc1ccc(C(CC(=O)O)c2nc(CCCC3CCc4cccnc4N3)cs2)cn1 (single isomer, unassigned) [Example 157, 3-(6-methoxypyridin-3-yl)-3-(4-(3-(1,2,3,4-tetrahydro-1,8-naphthyridin-2-yl)propyl)thiazol-2-yl)propanoic acid] | 27
20 | CN(C)C(=O)c1ccc(C(CC(=O)O)c2nc(CCCCc3ccc4c(n3)NCCC4)cs2)cc1F (single isomer, unassigned) [Example 132, 3-(4-(dimethylcarbamoyl)-3-fluorophenyl)-3-(4-(4-(5,6,7,8-tetrahydro-1,8-naphthyridin-2-yl)butyl)thiazol-2-yl)propanoic acid] | 81
21 | O=C(O)CC(c1cnc2c(c1)OCCO2)n1ccc(CCCc2ccc3c(n2)NCCC3)n1 (racemic) [Example 35, (±)-3-(2,3-Dihydro-[1,4]dioxino[2,3-b]pyridin-7-yl)-3-(3-(3-(5,6,7,8-tetrahydro-1,8-naphthyridin-2-yl)propyl)-1H-pyrazol-1-yl)propanoic acid] | 17
22 | Cc1cncc(C(CC(=O)O)c2nc(CCCc3ccc4c(n3)NCCC4)cs2)c1 (single isomer, unassigned) [Example 150, 3-(5-methylpyridin-3-yl)-3-(4-(3-(5,6,7,8-tetrahydro-1,8-naphthyridin-2-yl)propyl)thiazol-2-yl)propanoic acid] | 87
23 | COc1ccc(C(CC(=O)O)c2nc(CCCc3ccc4c(n3)NCCC4)co2)cc1F (single isomer, unassigned) [Example 179, 3-(3-fluoro-4-methoxyphenyl)-3-(4-(3-(5,6,7,8-tetrahydro-1,8-naphthyridin-2-yl)propyl)oxazol-2-yl)propanoic acid] | 66
24 | COc1ncc(C(CC(=O)O)n2nccc2CCC[C@@H]2CCc3cccnc3N2)cn1 (mixture of isomers) [Example 93, 3-(2-methoxypyrimidin-5-yl)-3-(5-(3-((R)-1,2,3,4-tetrahydro-1,8-naphthyridin-2-yl)propyl)-1H-pyrazol-1-yl)propanoic acid] | 1030
25 | CN(C)C(=O)c1cccc(C(CC(=O)O)c2nc(CCCc3ccc4c(n3)NCCC4)cs2)c1 (single isomer, unassigned) [Example 140, 3-(3-(dimethylcarbamoyl)phenyl)-3-(4-(3-(5,6,7,8-tetrahydro-1,8-naphthyridin-2-yl)propyl)thiazol-2-yl)propanoic acid] | 3.7
26 | O=C(O)CCCNc1cc(C(CC(=O)O)n2ccc(CCCc3ccc4c(n3)NCCC4)n2)ccn1 (racemic) [Example 76, (±)-4-{[4-(2-carboxy-1-{3-[3-(5,6,7,8-tetrahydro-1,8-naphthyridin-2-yl)propyl]-1H-pyrazol-1-yl}ethyl)pyridin-2-yl]amino}butanoic acid] | 55
27 | COc1ccc(C(CC(=O)O)c2nc(CCCc3ccc4c(n3)NCCC4)cs2)cc1F (single isomer, unassigned) [Example 39, 3-(3-Fluoro-4-methoxyphenyl)-3-(4-(3-(5,6,7,8-tetrahydro-1,8-naphthyridin-2-yl)propyl)thiazol-2-yl)propanoic acid] | 23
28 | O=C(O)CC(c1cncc(N2CCOCC2)c1)n1nccc1CCCc1ccc2c(n1)NCCC2 (single isomer, unassigned) [Example 95, 3-(5-morpholinopyridin-3-yl)-3-(5-(3-(5,6,7,8-tetrahydro-1,8-naphthyridin-2-yl)propyl)-1H-pyrazol-1-yl)propanoic acid] | 230
